The text below walks through data of ChEMBL document CHEMBL5291721, “A preclinical secondary pharmacology resource illuminates target-adverse drug reaction associations of marketed drugs” (Nat Commun, 2023).

For experiment [1], the target named is Voltage-gated inwardly rectifying potassium channel KCNH2 (Homo sapiens, UniProt Q12809). Format: functional.
For the next experiment, the target named is Melanocortin receptor 3 (Homo sapiens, UniProt P41968).
In experiment [2] the target is T1, Alpha-2A adrenergic receptor (Homo sapiens, UniProt P08913).
T1 sequence (P08913 whole entry): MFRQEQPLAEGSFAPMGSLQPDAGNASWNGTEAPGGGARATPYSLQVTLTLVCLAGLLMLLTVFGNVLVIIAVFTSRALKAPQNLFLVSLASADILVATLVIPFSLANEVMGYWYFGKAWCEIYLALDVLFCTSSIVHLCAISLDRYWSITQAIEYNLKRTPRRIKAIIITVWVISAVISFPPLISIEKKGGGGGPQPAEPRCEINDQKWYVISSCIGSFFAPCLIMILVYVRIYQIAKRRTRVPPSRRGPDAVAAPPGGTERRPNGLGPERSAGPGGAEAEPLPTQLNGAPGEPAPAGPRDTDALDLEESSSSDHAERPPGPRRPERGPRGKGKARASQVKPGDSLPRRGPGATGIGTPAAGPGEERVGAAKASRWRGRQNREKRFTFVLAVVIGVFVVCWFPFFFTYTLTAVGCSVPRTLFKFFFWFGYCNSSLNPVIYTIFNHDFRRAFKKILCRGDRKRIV
Format: functional, cell-based.

A further experiment deals with D(1A) dopamine receptor (Homo sapiens, UniProt P21728). It counts as functional, cell-based.
The target of experiment [3] is T2, 5-hydroxytryptamine receptor 1A (Homo sapiens, UniProt P08908).
T2 sequence (P08908 whole entry): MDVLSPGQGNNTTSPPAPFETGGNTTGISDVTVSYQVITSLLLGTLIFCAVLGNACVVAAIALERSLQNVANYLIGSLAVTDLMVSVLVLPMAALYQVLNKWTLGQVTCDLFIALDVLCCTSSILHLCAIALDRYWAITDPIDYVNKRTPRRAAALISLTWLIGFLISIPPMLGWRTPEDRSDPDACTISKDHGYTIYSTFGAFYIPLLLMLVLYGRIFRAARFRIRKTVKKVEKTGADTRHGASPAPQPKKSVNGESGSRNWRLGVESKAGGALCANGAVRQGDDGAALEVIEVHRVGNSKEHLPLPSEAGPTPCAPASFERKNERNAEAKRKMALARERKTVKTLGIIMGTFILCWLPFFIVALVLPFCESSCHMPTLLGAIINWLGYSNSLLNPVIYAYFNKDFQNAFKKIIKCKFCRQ
Format: functional, cell-based.

The target of the next experiment is T3, Thromboxane A2 receptor (Homo sapiens, UniProt P21731).
T3 sequence (P21731 whole entry): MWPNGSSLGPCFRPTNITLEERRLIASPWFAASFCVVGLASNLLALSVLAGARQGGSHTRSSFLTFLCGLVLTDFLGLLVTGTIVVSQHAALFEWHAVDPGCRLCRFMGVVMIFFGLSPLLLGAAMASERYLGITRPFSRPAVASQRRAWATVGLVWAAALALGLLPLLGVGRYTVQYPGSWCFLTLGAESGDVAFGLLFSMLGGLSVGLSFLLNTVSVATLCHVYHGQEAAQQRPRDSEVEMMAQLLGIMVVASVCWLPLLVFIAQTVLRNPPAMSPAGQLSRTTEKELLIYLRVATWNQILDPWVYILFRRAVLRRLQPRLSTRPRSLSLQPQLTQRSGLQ

For experiment [4], the target named is T4, Amine oxidase [flavin-containing] A (Homo sapiens, UniProt P21397).
T4 sequence (P21397 whole entry): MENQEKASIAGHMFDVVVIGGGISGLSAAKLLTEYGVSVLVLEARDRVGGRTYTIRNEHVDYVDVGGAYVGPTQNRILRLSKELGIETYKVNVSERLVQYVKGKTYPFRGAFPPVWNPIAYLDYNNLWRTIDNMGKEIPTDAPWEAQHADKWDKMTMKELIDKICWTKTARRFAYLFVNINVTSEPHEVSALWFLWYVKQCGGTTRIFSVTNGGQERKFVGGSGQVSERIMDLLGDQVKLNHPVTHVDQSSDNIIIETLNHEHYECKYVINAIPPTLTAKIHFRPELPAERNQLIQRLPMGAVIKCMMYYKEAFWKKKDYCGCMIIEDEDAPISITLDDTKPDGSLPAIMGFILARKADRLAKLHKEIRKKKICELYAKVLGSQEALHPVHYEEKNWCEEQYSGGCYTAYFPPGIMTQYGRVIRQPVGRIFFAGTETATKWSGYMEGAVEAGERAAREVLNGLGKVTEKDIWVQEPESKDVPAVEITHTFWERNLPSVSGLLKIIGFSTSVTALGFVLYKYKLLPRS
It counts as functional.

Experiment [5] deals with T5, Cholecystokinin receptor type A (Homo sapiens, UniProt P32238).
T5 sequence (P32238 whole entry): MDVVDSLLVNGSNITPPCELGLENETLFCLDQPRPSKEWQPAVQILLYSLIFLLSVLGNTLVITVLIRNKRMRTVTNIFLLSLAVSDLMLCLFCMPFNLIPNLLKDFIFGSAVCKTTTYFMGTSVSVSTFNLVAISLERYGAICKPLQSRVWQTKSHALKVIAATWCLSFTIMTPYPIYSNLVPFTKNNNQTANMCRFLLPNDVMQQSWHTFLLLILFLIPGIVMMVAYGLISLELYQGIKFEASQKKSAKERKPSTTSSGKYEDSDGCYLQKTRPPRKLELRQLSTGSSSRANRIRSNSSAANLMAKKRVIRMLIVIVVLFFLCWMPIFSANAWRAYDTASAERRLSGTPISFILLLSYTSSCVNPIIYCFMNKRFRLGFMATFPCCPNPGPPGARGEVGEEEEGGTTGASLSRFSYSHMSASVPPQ

Experiment [6] has as its target Sodium-dependent dopamine transporter (Homo sapiens, UniProt Q01959).
In experiment [7] the target is T6, Equilibrative nucleoside transporter 1 (Homo sapiens, UniProt Q99808).
T6 sequence (Q99808 whole entry): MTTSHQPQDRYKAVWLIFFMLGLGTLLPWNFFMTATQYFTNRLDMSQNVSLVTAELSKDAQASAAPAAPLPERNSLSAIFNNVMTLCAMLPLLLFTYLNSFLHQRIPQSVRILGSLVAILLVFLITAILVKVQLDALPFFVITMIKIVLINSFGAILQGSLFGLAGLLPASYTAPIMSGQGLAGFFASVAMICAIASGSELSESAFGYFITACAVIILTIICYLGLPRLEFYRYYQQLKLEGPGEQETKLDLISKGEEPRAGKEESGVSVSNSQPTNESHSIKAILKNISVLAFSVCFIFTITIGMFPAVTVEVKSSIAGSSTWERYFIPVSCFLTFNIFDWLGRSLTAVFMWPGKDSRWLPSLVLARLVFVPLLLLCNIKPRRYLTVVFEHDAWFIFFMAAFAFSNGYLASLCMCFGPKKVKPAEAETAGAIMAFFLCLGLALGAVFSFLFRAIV

Where a SMILES comes first, the peptide text is derived from it. [ ]: non-standard residue; d: D form. pGlu = O=C1CC[C@@H](C(=O)O)N1; Thz = O=C(O)[C@@H]1CSCN1
Also: assay procedure not described here.

Chain of D(1A) dopamine receptor (P21728 whole entry): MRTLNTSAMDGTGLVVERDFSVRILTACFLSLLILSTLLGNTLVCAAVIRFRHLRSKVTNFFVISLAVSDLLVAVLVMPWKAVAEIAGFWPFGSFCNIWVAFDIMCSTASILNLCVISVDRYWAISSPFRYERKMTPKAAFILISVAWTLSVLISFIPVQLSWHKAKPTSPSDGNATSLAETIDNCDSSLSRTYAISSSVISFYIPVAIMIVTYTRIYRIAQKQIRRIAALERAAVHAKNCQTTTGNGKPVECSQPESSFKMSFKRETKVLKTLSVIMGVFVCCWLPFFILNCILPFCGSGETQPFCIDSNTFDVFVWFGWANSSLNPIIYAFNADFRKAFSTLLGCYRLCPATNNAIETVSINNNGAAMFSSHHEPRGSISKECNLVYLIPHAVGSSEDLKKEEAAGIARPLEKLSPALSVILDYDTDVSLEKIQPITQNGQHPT
Chain of Voltage-gated inwardly rectifying potassium channel KCNH2 (Q12809 whole entry): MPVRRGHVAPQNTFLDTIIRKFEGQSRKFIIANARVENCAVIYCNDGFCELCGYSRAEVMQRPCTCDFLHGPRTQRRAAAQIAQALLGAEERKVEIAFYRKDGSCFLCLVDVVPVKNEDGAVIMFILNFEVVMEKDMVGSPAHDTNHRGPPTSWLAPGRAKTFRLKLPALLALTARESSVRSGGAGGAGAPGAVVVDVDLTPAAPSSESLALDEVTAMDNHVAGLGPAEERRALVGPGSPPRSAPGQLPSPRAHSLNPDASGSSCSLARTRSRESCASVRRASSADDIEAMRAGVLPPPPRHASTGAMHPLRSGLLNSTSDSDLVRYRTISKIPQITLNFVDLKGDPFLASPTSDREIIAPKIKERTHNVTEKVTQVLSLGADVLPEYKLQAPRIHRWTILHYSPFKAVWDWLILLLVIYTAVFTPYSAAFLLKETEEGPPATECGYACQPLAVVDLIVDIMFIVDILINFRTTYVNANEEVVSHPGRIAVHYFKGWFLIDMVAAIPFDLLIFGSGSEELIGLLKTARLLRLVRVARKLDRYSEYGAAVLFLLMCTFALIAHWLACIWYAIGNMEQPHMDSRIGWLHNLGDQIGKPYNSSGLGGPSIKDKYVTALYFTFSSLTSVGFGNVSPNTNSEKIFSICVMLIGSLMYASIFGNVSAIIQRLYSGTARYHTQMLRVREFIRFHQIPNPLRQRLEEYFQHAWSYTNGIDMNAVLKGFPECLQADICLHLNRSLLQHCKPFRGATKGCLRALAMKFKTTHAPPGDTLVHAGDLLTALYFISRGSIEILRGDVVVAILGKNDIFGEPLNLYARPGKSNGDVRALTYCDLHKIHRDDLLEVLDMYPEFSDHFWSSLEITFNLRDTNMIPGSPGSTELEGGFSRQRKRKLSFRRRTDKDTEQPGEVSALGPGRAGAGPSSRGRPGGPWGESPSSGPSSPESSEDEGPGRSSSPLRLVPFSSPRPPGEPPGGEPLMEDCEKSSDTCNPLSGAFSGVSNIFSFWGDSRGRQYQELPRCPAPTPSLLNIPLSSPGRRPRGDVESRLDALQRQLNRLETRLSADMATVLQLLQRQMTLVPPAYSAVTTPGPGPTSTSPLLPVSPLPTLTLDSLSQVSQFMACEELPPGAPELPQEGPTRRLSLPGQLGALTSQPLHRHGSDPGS
Chain of Melanocortin receptor 3 (P41968 whole entry): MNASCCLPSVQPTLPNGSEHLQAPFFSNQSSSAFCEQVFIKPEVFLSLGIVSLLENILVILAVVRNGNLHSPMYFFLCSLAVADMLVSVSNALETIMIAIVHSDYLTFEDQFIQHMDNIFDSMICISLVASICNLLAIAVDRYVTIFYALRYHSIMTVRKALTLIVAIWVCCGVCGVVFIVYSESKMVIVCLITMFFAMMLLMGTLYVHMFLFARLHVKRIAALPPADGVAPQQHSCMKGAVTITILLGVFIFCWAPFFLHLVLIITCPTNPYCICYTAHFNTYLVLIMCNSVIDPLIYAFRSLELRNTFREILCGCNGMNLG
Chain of Sodium-dependent dopamine transporter (Q01959 whole entry): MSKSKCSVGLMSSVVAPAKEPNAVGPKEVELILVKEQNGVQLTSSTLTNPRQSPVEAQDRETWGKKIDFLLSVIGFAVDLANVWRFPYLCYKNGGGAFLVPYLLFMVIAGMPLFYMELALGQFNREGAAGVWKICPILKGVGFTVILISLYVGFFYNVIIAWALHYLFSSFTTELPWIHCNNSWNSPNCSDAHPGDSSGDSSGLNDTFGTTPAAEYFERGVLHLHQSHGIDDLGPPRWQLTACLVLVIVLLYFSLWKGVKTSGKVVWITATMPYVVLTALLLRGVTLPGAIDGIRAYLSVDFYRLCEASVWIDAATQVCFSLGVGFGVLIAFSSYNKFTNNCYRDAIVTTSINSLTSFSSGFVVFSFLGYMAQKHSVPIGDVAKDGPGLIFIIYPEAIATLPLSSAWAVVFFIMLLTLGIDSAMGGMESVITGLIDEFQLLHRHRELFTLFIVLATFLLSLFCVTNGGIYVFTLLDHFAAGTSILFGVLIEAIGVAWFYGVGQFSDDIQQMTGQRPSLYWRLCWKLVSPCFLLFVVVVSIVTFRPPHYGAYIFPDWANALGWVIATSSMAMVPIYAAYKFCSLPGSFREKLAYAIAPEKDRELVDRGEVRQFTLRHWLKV

`CCN1CC(CCN2CCOCC2)C(c2ccccc2)(c2ccccc2)C1=O` (stereo not given) [DOXAPRAM]: the AC50 in experiment [1] was 10.5 µM; on Melanocortin receptor 3, over 30 µM; in experiment [2] it was over 30 µM; on D(1A) dopamine receptor it was over 30 µM; in [3], over 30 µM; on Thromboxane A2 receptor, over 30 µM. The AC50 in experiment [4], in [5], in experiment [6] and in experiment [7] was over 30 µM each time.

In the case of `C[C@@H]1C[C@H]2[C@@H]3CCC4=CC(=O)C=C[C@]4(C)[C@@]3(F)[C@@H](O)C[C@]2(C)[C@@]1(O)C(=O)CO` [DEXAMETHASONE], the half-maximal activity concentration (AC50) in experiment [1] was over 30 µM; at Melanocortin receptor 3, over 30 µM; in experiment [2], over 10 µM; at D(1A) dopamine receptor, over 30 µM; in [3], over 10 µM; at Thromboxane A2 receptor, over 30 µM. Besides, the concentration at half-maximal activity (AC50) in experiment [4], in experiment [5], in experiment [6] and in [7] was over 30 µM each time.

On to `CC(c1cc2ccccc2s1)N(O)C(N)=O` (stereo not given) [ZILEUTON], for which the half-maximal activity concentration (AC50) in experiment [1] is over 30 µM; at Melanocortin receptor 3, over 10 µM; in [2], over 10 µM; at D(1A) dopamine receptor, over 10 µM; in experiment [3] it was over 10 µM; on Thromboxane A2 receptor it was over 10 µM. Further, the half-maximal activity concentration (AC50) in [4], in experiment [5], in experiment [6] and in experiment [7] was over 10 µM throughout.

On to `COc1cc(C(=O)NC2CCCNC2)cc(OC)c1OC` (stereo not given) [TROXIPIDE], for which the AC50 (in experiment [1]; at Melanocortin receptor 3; in [2]; on D(1A) dopamine receptor; in [3]; on Thromboxane A2 receptor) was over 30 µM throughout. In addition, the concentration at half-maximal activity (AC50) in experiment [4], in experiment [5], in experiment [6] and in [7] was over 30 µM in each case.

For `CCOC(=O)c1ccc(C#Cc2ccc3c(c2)C(C)(C)CCS3)nc1` [TAZAROTENE], the AC50 was over 30 µM in [1]; over 30 µM at Melanocortin receptor 3; over 10 µM in experiment [2]; over 30 µM on D(1A) dopamine receptor; over 30 µM in [3]; over 30 µM at Thromboxane A2 receptor. Moreover, the half-maximal activity concentration (AC50) is over 10 µM in [4], over 30 µM in experiment [5], over 30 µM in [6] and over 30 µM in experiment [7].

On to `COc1ccc(C2C(=O)c3ccccc3C2=O)cc1` [ANISINDIONE], for which the AC50 is over 30 µM in [1]; over 10 µM at Melanocortin receptor 3; over 10 µM in [2]; over 30 µM on D(1A) dopamine receptor; over 10 µM in [3]; over 10 µM at Thromboxane A2 receptor. The AC50 was 91 µM in experiment [4], over 10 µM in experiment [5], over 10 µM in [6] and over 10 µM in experiment [7].

In the case of `COc1ccc(CN2CCN(C(c3ccc(F)cc3)c3ccc(F)cc3)CC2)c(OC)c1OC` [LOMERIZINE], the AC50 in experiment [1] was 0.45 µM; at Melanocortin receptor 3 it was over 30 µM; in experiment [2] it was over 30 µM; on D(1A) dopamine receptor it was over 30 µM; in experiment [3], over 30 µM; on Thromboxane A2 receptor it was over 30 µM. Moreover, the AC50 in [4] is over 30 µM; in experiment [5], over 30 µM; in experiment [6] it was 16 µM; in experiment [7] it was over 30 µM.

With `O=C1CC[C@@H](C(=O)N2CSC[C@H]2C(=O)O)N1` [PIDOTIMOD] ([pGlu]-[Thz]-OH), the half-maximal activity concentration (AC50) (in [1]; on Melanocortin receptor 3; in experiment [2]; on D(1A) dopamine receptor; in [3]; at Thromboxane A2 receptor) was over 30 µM each time. In addition, the concentration at half-maximal activity (AC50) in experiment [4], in experiment [5], in experiment [6] and in [7] was over 30 µM throughout.

Take `CCCC(C)(COC(N)=O)COC(N)=O` [MEPROBAMATE]: the concentration at half-maximal activity (AC50) in [1] was over 30 µM; at Melanocortin receptor 3 it was over 10 µM; in [2] it was over 10 µM; at D(1A) dopamine receptor it was over 10 µM; in experiment [3], over 10 µM; on Thromboxane A2 receptor it was over 10 µM. Also, the half-maximal activity concentration (AC50) in [4] is over 30 µM; in experiment [5], over 10 µM; in experiment [6], over 10 µM; in experiment [7], over 10 µM.

As for `OC[C@H]1O[C@@H](Oc2cc(O)cc(/C=C/c3ccc(O)cc3)c2)[C@H](O)[C@@H](O)[C@@H]1O` [PICEID], the AC50 (in [1]; at Melanocortin receptor 3; in experiment [2]; at D(1A) dopamine receptor; in experiment [3]; on Thromboxane A2 receptor) was over 30 µM in each case. For the same compound, the concentration at half-maximal activity (AC50) in [4], in [5], in [6] and in [7] was over 30 µM throughout.

As to `COc1cc(C)c(/C=C/C(C)=C/C=C/C(C)=C/C(=O)O)c(C)c1C` [ACITRETIN], the half-maximal activity concentration (AC50) in [1] is over 30 µM; on Melanocortin receptor 3, over 10 µM; in experiment [2] it was over 10 µM; on D(1A) dopamine receptor it was over 10 µM; in experiment [3], over 10 µM; at Thromboxane A2 receptor, over 10 µM. For the same compound, the half-maximal activity concentration (AC50) in experiment [4], in experiment [5], in [6] and in experiment [7] was over 10 µM each time.
